Experimental data published in paper PMC9892005, “Principles of mitoribosomal small subunit assembly in eukaryotes” (Nature, 2022).

Experiments:
[1] = target: T1, METTL17 (Homo sapiens, UniProt Q9H7H0); experiment: cryo-EM structure of native mtSSU assembly intermediates; type: binding; conditions: architectural cofactor; METTL17 bound to pre-mtSSU
T1 construct: endogenous METTL17 with C-terminal linker-twinStrep-FLAG-10xHis-TEV-SPOT-3C-GFP tag, eluted with 3C protease
T1 sequence (Q9H7H0 28-456): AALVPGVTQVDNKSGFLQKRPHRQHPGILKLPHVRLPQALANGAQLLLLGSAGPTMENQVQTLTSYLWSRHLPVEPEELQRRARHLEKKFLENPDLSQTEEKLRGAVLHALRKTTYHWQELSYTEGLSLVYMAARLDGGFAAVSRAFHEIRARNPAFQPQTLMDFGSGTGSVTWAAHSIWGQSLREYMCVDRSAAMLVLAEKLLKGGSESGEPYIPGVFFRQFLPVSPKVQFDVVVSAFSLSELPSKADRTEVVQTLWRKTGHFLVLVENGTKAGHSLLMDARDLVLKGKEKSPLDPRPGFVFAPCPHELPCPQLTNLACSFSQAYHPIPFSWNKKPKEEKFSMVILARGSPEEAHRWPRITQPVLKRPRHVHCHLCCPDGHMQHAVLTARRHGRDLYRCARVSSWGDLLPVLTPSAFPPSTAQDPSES

[2] = target: T2, Rsm22 (Saccharomyces cerevisiae, UniProt P36056); experiment: as above; type: binding; conditions: architectural cofactor; Rsm22 bound to pre-mtSSU
T2 construct: native yeast mtSSU assembly intermediates; untagged Rsm22 in Ccm1-purified states 1 and 2, C-terminal linker-TEV-alfa-3C-mCherry tag (cleaved) in state 3
T2 sequence (P36056 16-628): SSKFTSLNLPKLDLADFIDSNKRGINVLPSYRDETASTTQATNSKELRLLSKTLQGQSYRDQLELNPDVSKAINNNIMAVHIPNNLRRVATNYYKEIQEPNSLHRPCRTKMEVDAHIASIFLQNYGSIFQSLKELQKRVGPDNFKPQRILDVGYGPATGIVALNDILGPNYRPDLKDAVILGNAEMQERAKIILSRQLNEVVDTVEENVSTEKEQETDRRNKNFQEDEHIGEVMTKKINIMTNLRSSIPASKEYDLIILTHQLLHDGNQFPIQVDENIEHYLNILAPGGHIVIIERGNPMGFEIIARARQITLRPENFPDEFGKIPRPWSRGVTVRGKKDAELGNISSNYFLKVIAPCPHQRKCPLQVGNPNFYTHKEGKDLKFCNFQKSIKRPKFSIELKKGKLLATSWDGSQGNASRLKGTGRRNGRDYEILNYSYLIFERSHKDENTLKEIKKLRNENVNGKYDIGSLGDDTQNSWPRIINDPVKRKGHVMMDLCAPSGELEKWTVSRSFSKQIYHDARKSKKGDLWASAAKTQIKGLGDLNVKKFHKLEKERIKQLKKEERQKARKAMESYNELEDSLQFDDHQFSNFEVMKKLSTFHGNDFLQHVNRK

Question: What does the source list for [S]12[Fe]3[S]4[Fe]1[S]1[Fe]2[S]3[Fe]41 [Fe4S4 cluster]?
Answer: cryo-EM structure of native mtSSU assembly intermediates [1]: identified an Fe4S4 cluster as an architectural cofactor of the Rsm22 (METTL17) protein family; cryo-EM structure of native mtSSU assembly intermediates [2]: identified an Fe4S4 cluster as an architectural cofactor of the Rsm22 (METTL17) protein family
